Test results: PMC11123841, “Discovery and Synthesis of Hydroxy-L-Proline Blockers of the Neutral Amino Acid Transporters SLC1A4 (ASCT1) and SLC1A5 (ASCT2)” (Molecules, 2024)
“And” between values parts separate entries of the source, which are not always exact repeats. Equal values may be shown once. Read-outs that look alike come from different tables or passages of the source. Values belong to the molecule of their own block, whether it stands above or below them.

How the values were obtained:
SLC1A5 [1] = target: T1, SLC1A5 (Mus musculus, UniProt P51912); test: [3H]L-Gln radiolabeled uptake competition in oocytes; type: cell-based; conditions: 10 µM [3H]L-Gln uptake in SLC1A5; read-out: IC50, block of [3H]L-Gln uptake
T1 construct: expressed in transfected cells; host or cells: Xenopus laevis oocytes (cRNA injection)
T1 sequence (P51912 1-553): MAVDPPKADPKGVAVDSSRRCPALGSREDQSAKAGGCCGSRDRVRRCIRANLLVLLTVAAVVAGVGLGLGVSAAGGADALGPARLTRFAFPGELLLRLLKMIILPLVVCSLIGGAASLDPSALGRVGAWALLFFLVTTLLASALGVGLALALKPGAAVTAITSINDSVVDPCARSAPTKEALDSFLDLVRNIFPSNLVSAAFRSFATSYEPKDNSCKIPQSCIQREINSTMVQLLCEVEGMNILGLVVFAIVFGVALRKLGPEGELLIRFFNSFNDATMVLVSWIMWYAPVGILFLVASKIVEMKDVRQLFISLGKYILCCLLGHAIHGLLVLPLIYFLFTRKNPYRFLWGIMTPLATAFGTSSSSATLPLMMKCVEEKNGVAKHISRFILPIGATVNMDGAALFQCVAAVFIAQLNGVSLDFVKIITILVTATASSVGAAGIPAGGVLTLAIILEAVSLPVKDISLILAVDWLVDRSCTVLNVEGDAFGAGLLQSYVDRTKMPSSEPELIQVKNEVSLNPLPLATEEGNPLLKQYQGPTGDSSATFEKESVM
Method: (§1) Uptake was halted by washing 3 times with 4 °C ND96 buffer. Oocytes were then lysed in 0.1% Triton X-100, and radioactivity was counted via liquid scintillation. Dose response curves were generated by fitting fractional inhibition (I) to the expression I = Imax × [inhibitor]/([inhibitor] + IC50).
(§2) (A) SLC1A4 dose response curves for substrate activated anion currents using two-electrode voltage clamp of Xenopus lavies oocytes (−30 mV). […] (B) SLC1A5 dose response curve for substrate activated anion currents using two-electrode voltage clamp (−30 mV). […] Extracellular solutions contained 50 mM NaSCN.

SLC1A4 [2] = target: T2, SLC1A4 (Homo sapiens, UniProt P43007); test: TEVC block of anion leak conductance in oocytes; type: cell-based
T2 construct: expressed in transfected cells; host or cells: Xenopus laevis oocytes (cRNA injection)
T2 sequence (P43007 1-532): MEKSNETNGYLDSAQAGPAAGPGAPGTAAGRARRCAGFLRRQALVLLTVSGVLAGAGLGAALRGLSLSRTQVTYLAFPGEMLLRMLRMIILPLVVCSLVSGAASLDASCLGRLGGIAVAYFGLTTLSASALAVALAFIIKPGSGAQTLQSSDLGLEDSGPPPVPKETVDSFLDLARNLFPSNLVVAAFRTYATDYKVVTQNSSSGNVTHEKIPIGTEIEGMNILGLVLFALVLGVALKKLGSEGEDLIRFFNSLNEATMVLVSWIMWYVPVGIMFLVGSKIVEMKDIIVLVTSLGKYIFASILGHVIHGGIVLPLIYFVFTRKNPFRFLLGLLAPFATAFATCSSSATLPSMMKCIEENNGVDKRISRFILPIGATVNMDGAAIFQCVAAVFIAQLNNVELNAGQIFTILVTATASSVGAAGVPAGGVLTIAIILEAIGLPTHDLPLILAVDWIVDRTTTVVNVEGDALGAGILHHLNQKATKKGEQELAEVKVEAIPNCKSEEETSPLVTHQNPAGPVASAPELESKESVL
Description: (§3) The currents induced by substrates and blocked by hydroxyproline analogs shared a reversal potential shown in the current/voltage relationship consistent with the conductance originating from the same ion pore (Figure 3, inset). […] The observed dose–response relationships are independent of competing substrates, and thus provide a direct measure of the equilibrium inhibition constant (Ki). Each synthetic hydroxyproline analog was functionally assessed for its capacity to inhibit SLC1A4 and SLC1A5 leak currents with affinities reported in Table 1 as determined or approximated Ki.
(§4) Two-electrode voltage clamp (TEVC) transporter currents were recorded with a GeneClamp 500 amplifier and Digidata 1320A analog–digital interface (Molecular Devices, San Jose, CA, USA). Electrodes (0.2–1.0 MΩ) were filled with 3M KCl and the recording chamber was grounded with an agar bridge. Data were acquired with Axograph (v1.7.6) and LabChart (v7) and analyzed with Kaleidagraph software (v4.1) (Synergy, Reading, PA, USA). Uncoupled anion currents associated with the transport of substrate and block of SLC1A4 or SLC1A5 mediated leak conductance were recorded in the presence of Ringer with 50% substitution of NaCl by NaSCN to amplify the non-transported anion conductance.
(§5) Figure 3 AHPCs block a leak current in SLC1A4 and SLC1A5. […] Inset (A): The current and voltage relationship for SLC1A4 currents activated by Ala or blocked by 14b are determined by subtracting voltage jumps in buffer.

mSLC1A5 = target: T3, mSLC1A5 (Mus musculus, UniProt P51912); test: TEVC block of anion leak conductance in oocytes; type: cell-based
T3 construct: expressed in transfected cells; host or cells: Xenopus laevis oocytes (cRNA injection)
T3 sequence (P51912 1-553): T1 sequence (P51912 1-553)
Description: as §3, §4, §5

SLC1A4 [3] = target: T2, SLC1A4; test: [3H]L-alanine heteroexchange (trans-stimulation) in preloaded oocytes; type: cell-based; conditions: 3 µM BPOHP, 1 mM L-alanine
Method: as §1

SLC1A5 [4] = target: T1, SLC1A5; test: as above; type: cell-based; conditions: 3 µM BPOHP, 1 mM L-alanine
Method: as §1

SLC1A4 [5] = conditions: concentrations up to 1 mM, oocytes expressing SLC1A4; cited from earlier work
ASCT = conditions: extracellular 300 µM; cited from earlier work
SLC1A4 (hASCT1) = target: T4, SLC1A4 (hASCT1) (Homo sapiens, UniProt P43007); test: TEVC substrate-induced SCN- anion currents in Xenopus oocytes; type: cell-based
T4 construct: expressed in transfected cells; host or cells: Xenopus laevis oocytes (cRNA injection)
T4 sequence (P43007 1-532): T2 sequence (P43007 1-532)
Method: (§6) Additionally, 4-HP applied at 1 mM was used to assess activity at the glutamate transporters SLC1A3 or SLC1A1.
as §1, §4, §2

SLC1A5 (mASCT2) = target: T5, SLC1A5 (mASCT2) (Mus musculus, UniProt P51912); test: as above; type: cell-based
T5 construct: expressed in transfected cells; host or cells: Xenopus laevis oocytes (cRNA injection)
T5 sequence (P51912 1-553): T1 sequence (P51912 1-553)
Method: as §6, §1, §4, §2

[6] = substrate: C[C@H](N)C(=O)O; test: cells, lysate or membranes; conditions: other: SLC1A4; substrate activated anion currents, TEVC −30 mV, 50 mM NaSCN, Michaelis-Menten fit
[7] = substrate: O=C(O)[C@@H]1C[C@@H](O)CN1; test: TEVC substrate-induced SCN- anion currents in Xenopus oocytes; type: cell-based, human; conditions: other: SLC1A4; substrate activated anion currents, TEVC −30 mV, 50 mM NaSCN, Michaelis-Menten fit
[8] = substrate: O=C(O)[C@H]1NCC[C@@H]1O; test: as above; type: cell-based, human; conditions: other: SLC1A4; substrate activated anion currents, TEVC −30 mV, 50 mM NaSCN, Michaelis-Menten fit
[9] = substrate: NC(=O)CC[C@H](N)C(=O)O; test: as above; type: cell-based, mouse; conditions: other: SLC1A5; substrate activated anion currents, TEVC −30 mV, 50 mM NaSCN, Michaelis-Menten fit
[10] = substrate: O=C(O)[C@@H]1C[C@@H](O)CN1; test: as above; type: cell-based, mouse; conditions: other: SLC1A5; substrate activated anion currents, TEVC −30 mV, 50 mM NaSCN, Michaelis-Menten fit
[11] = substrate: O=C(O)[C@H]1NCC[C@@H]1O; test: as above; type: cell-based, mouse; conditions: other: SLC1A5; substrate activated anion currents, TEVC −30 mV, 50 mM NaSCN, Michaelis-Menten fit
[12] = from dose–response of blocked anion conductance, compounds tested only once without standard error, read-out: SLC1A4 Ki
[13] = mSLC1A5, from dose–response of blocked anion conductance, compounds tested only once without standard error, read-out: SLC1A5 Ki
[14] = from dose–response of blocked anion conductance, compounds tested only once without standard error

Molecule: O=C(O)[C@H]1NCC[C@@H]1O [3-HP, trans-3-hydroxy-L-proline]
IC50 (SLC1A5 [1]): 39 µM

Molecule: CC1CNC(C(=O)O)C1O [10a, trans-3-hydroxy-cis-4-methyl-L-proline]
block of anion leak conductance / inhibition (SLC1A4 [2]; SLC1A4): no inhibition of transport
Ki (SLC1A4 [2]; [12]): 1050 ± 110 µM
block of anion leak conductance / inhibition (mSLC1A5; SLC1A5): no inhibition of transport
Ki (mSLC1A5; [13]): 1150 ± 283 µM

Molecule: CC1C(O)CNC1C(=O)O (centres unmarked) [10b]
Ki (SLC1A4 [2]; [12]): 564 ± 149 µM
Ki (mSLC1A5; [13]): 922 ± 316 µM

Molecule: O=C(O)C1NCC(c2ccccc2)C1O (centres unmarked) [10c]
Ki (SLC1A4 [2]; [12]): ~600 µM
Ki (mSLC1A5; [13]): ~600 µM

Molecule: O=C(O)C1NCC(O)C1c1ccccc1 [10d, cis-3-phenyl-4-trans-hydroxy-L-proline]
Ki (SLC1A4 [2]; [12]): 332 ± 74 µM
Ki (mSLC1A5; [13]): 1130 ± 318 µM

Molecule: O=C(O)C1NCC(Oc2ccccc2)C1O (centres unmarked) [12a]
Ki (SLC1A4 [2]; [12]): 150 ± 43 µM
Ki (mSLC1A5; [13]): 141 ± 20 µM

Molecule: O=C(O)C1NCC(O)C1Oc1ccccc1 (centres unmarked) [12b]
Ki (SLC1A4 [2]; [12]): 594 ± 191 µM
Ki (mSLC1A5; [13]): 502 ± 110 µM

Molecule: O=C(O)C1NCC(Oc2ccccc2)C1O [12c, (2S,3R,4S)-3-hydroxy-4-phenoxypyrrolidin-2-carboxylate]
Ki (SLC1A4 [2]; [12]): ~150 µM
Ki (mSLC1A5; [13]): ~150 µM

Molecule: C[C@H](N)C(=O)O [L-Ala, L-alanine, reference compound]
[3H]L-alanine exchange (SLC1A4 [3]): induces exchange
[3H]L-alanine exchange (SLC1A5 [4]): induces exchange

Molecule: O=C(O)[C@@H]1CCCN1 [L-proline]
chloride currents (SLC1A4 [5]): does not elicit detectable chloride currents
heteroexchange release of intracellular radiolabeled ASCT substrates (ASCT): capable of inducing heteroexchange release

Molecule: O=C(O)[C@@H]1C[C@H](O)CN1 [compound 1, cis-4-hydroxy-L-proline, reference compound]
substrate currents (SLC1A4 (hASCT1)): did not induce detectable substrate currents
substrate currents (SLC1A5 (mASCT2)): did not induce detectable substrate currents
concentration at which leak anion current is blocked (SLC1A4 [2]; SLC1A4 (transporter not given)): above 500 µM
concentration at which leak anion current is blocked (mSLC1A5; SLC1A5 (transporter not given)): above 500 µM

Molecule: C[C@]1(O)CN[C@H](C(=O)O)C1 [compound 26, cis-4-methyl-trans-4-hydroxy-L-proline]
SLC1A4 Ki (µM) (SLC1A4 [2]; [14]): No Block

Molecule: C[C@@]1(O)CN[C@H](C(=O)O)C1 [compound 27, cis-4-hydroxy-trans-4-methyl-L-proline]
SLC1A4 Ki (µM) (SLC1A4 [2]; [14]): No Block

B1: SLC1A4 (hASCT1) (Homo sapiens) (protein)
chain: T2 sequence (P43007 1-532)
notes: expressed in transfected cells; host or cells: Xenopus laevis oocytes (cRNA injection)
Km [6]: 40.0 ± 1.8 µM and 40.3 µM
Km [7]: 17.1 ± 0.8 µM
Km [8]: 13.5 ± 1.8 µM

B2: SLC1A5 (mASCT2) (Mus musculus) (protein)
chain: T1 sequence (P51912 1-553)
notes: as for B1
Km [9]: 47.4 ± 4.6 µM
Km [10]: 76.3 ± 11.0 µM
Km [11]: 28.6 ± 6.4 µM

More lines, now with the values ahead:

block of anion leak conductance / inhibition (SLC1A4 [2]; SLC1A4): block the anion conductance
block of anion leak conductance / inhibition (mSLC1A5; SLC1A5): block the anion conductance
Molecule: CC(C)O[C@@H]1CN[C@H](C(=O)O)[C@H]1O [14b, trans-3-hydroxy-cis-4-isopropoxy-L-proline]

block of anion leak conductance / inhibition (SLC1A4 [2]; SLC1A4): block the anion conductance
fold higher affinity than 12a (SLC1A4 [2]; SLC1A4): ~ 6 fold
Ki (SLC1A4 [2]; SLC1A4, read-out: Ki): < 100 µM
block of anion leak conductance / inhibition (mSLC1A5; SLC1A5): block the anion conductance
fold higher affinity than 12a (mSLC1A5; SLC1A5): ~ 6 fold
Ki (mSLC1A5; SLC1A5, read-out: Ki): < 100 µM
Molecule: O=C(O)[C@H]1NC[C@@H](OCc2ccccc2)[C@@H]1O [14c]

Ki (SLC1A4 [2]; SLC1A4, read-out: Ki): > 500 µM
Ki (mSLC1A5; SLC1A5, read-out: Ki): > 500 µM
Molecule: CO[C@H]1CN[C@H](C(=O)O)[C@@H]1O [17a]

Ki (SLC1A4 [2]; [12]): 505 ± 105 µM
Ki (mSLC1A5; [13]): ~400 µM
Molecule: CC(C)O[C@H]1CN[C@H](C(=O)O)[C@@H]1O [17b]

Ki (SLC1A4 [2]; SLC1A4, read-out: Ki): > 500 µM
Ki (mSLC1A5; SLC1A5, read-out: Ki): > 500 µM
Molecule: O=C(O)[C@H]1NC[C@H](OCc2ccccc2)[C@H]1O [17c, cis-3-hydroxy-trans-4-benzyloxy-L-proline]
